The test system of series [1] is sorbitol accumulation in tissues. As to the kind of experiment: Inhibitory action on sorbitol accumulation in tissues of rats with experimental diabetes (streptozotocin). It is filed as in vivo, Sprague-Dawley rats. Conditions: percent of control (100%), oral at 4, 8 and 24 hours after streptozotocin, Example 9 at 10 mg/kg, EPALRESTAT at 30 mg/kg, 3 hours after final administration; for Sorbitol accumulation, nerve: sciatic nerve. The method, then: Sprague-Dawley rats (male, 6 weeks old, 5-6 per group) were fasted for 18 hours and injected with streptozotocin (SIGMA, 60 mg/kg) via the tail vein under etherization to prepare rats with diabetes.
The test drugs were orally administered at 4, 8 and 24 hours after the injection of streptozotocin. The compound of Example 9 was administered at 10 mg/kg and EPALRESTAT was administered at 30 mg/kg as a 0.5% carboxymethylcellulose suspension, respectively. During the administrations, the rats were raised under free access to feed and water and the sorbitol content in the tissues (erythrocytes, sciatic nerve, lens) was determined 3 hours after the final administration, according to the enzyme method of H.Y. Bergmeyer et al. [Methods of Enzymatic Analysis, vol. 3, 1323-1330 (1974)] with the use of SDH (sorbitol dehydrogenase) and NAD (β-nicotinamide adenine dinucleotide). The results (sorbitol accumulation) are expressed in percent (%) relative to the value of a control group administered with a 0.5% carboxymethylcellulose solution (solvent) instead of the drug, which was taken as 100%.

The target in another series is T1, aldose reductase (Sus scrofa, UniProt P80276).
T1 construct: swine lenses freeze-stored at -80°C were homogenized with distilled water; from tissue; host or cells: swine lens
Nature of the series: Aldose reductase inhibitory action (method of S. Hayman et al., absorbance change at 340 nm). It is filed as biochemical, swine. The method, then:
That is, swine lenses freeze-stored at -80°C were homogenized with distilled water and cetrifuged at 10,000 G for 15 minutes. The supernatant was prepared into a 40% ammonium sulfate solution and subjected to cetrifugation at 10,000 G for 10 minutes.
The activity of aldose reductase was determined by the above-mentioned method of S. Hayman et al. That is, the above-mentioned enzyme solution (25 µl) and a drug solution (25 µl) dissolved in 1% DMSO at various concentrations were added to a 40 mM phosphate buffer (200 µl, pH 6.2) containing final concentrations of 0.4 M lithium sulfate, 0.1 mM NADPH (reduced type nicotinamide adenine dinucleotide phosphate) and 3 mM dl-glyceraldehyde as a substrate. […] The test drug number indicates the example number to be mentioned later. […]

The next series deals with ICR mice. Nature of the series: Acute toxicity of a single oral dose. It counts as in vivo. Conditions: 300 mg/kg single oral dose, male ICR mice, observation for 14 days. The method, then: Normal ICR mice (male, 7 weeks old, 5 per group) were fasted for 18 hours and the compound (300 mg/kg) of Example 9 was orally administered as a 0.5% carboxymethylcellulose suspension. To the control group, a 0.5% carboxymethylcellulose solution alone was orally administered and observation was continued for 14 days thereafter, during which period the mice were allowed to take feed and water freely.

Where [2] appears, read: swine lens enzyme, 3 mM dl-glyceraldehyde as substrate, 0.1 mM NADPH, pH 6.2, 25°C, read-out: IC₅₀.

pIC50: −log10 of the molar value. Where two headings read alike, the source gives them in different places. Marks after values point to notes of the source that are not given here.

As for `CC(/C=C1\SC(=S)N(CC(=O)O)C1=O)=C\c1ccccc1` [EPALRESTAT, reference compound], in series [1], the “Sorbitol accumulation, erythrocytes” value came to 66.5%; the “Sorbitol accumulation, lens” value stood at 89.1%; the “Sorbitol accumulation, nerve” value was found to be 99.9%. This compound also showed a pIC50 against aldose reductase of 7.68.

With `O=C(O)CC1Sc2ncccc2N(Cc2nc3c(Cl)c(Cl)ccc3s2)C1=O` (stereo not shown) [Compound of Ex.12, 2-[4-(4,5-Dichlorobenzothiazol-2-yl)methyl-3-oxo-3,4-dihydro-2H-pyrido[2,3-b][1,4]thiazin-2-yl]acetic acid], the pIC50 on aldose reductase (setting [2]) is 7.92.

As for `O=C(O)CC1Sc2ncccc2N(Cc2nc3c(F)c(F)ccc3s2)C1=O` (stereo not shown) [Compound of Ex.10, 2-[4-(4,5-Difluorobenzothiazol-2-yl)methyl-3-oxo-3,4-dihydro-2H-pyrido[2,3-b][1,4]thiazin-2-yl]acetic acid], the pIC50 at aldose reductase (setting [2]) is 7.92.

Regarding `O=C(O)CC1Sc2cnccc2N(Cc2nc3c(F)c(F)cc(F)c3s2)C1=O` (stereo not shown) [Compound of Ex.14, 2-[4-(4,5,7-Trifluorobenzothiazol-2-yl)methyl-3-oxo-3,4-dihydro-2H-pyrido[3,4-b][1,4]thiazin-2-yl]acetic acid], on aldose reductase (setting [2]), the pIC50 is 7.92.

Consider `O=C(O)CC1Sc2ncccc2N(Cc2nc3c(F)c(F)cc(F)c3s2)C1=O` (stereo not shown) [Compound of Ex. 9, 2-[4-(4,5,7-Trifluorobenzothiazol-2-yl)methyl-3-oxo-3,4-dihydro-2H-pyrido[2,3-b][1,4]thiazin-2-yl]acetic acid], for which, in series [1], the “Sorbitol accumulation, erythrocytes” value was 59.0* %; the “Sorbitol accumulation, lens” value was 66.2* %; the “Sorbitol accumulation, nerve” value is reported as 3.3* %. In addition, the death cases result in the series with ICR mice was “no death case”. Also, in the series with ICR mice (compared with control group), the body weight transition entry is “showed transition in the same manner as in the control group”. In addition, the pIC50 on aldose reductase (setting [2]) is 7.96.
